Holding throughout (type): in vivo
Data set [1] has as its system Lolium perenne (LOLPE). The data set can be described thus: Herbicidal glasshouse test, post-emergence, LOLPE. The conditions noted are these: 250 g/Ha, evaluated after 13 days. On the procedure:
(§1) Seeds of a variety of test species are sown in standard soil in pots (Lolium perenne (LOLPE), Setaria faberi (SETFA), Alopecurus myosuroides (ALOMY), Echinochloa crus-galli (ECHCG), Avena fatua (AVEFA)). […] Compounds are applied at 250 g/h. The test plants are then grown in a glasshouse under controlled conditions in a glasshouse (at 24/16° C., day/night; 14 hours light; 65% humidity) and watered twice daily. After 13 days for pre and post-emergence, the test is evaluated for the percentage damage caused to the plant. […] NT=not tested.

The test system of data set [2] is Avena fatua (AVEFA). Put plainly: Herbicidal glasshouse test, post-emergence, AVEFA. The conditions noted are these: 250 g/Ha, evaluated after 13 days. On the procedure:
as §1

The subject of data set [3] is Alopecurus myosuroides (ALOMY). Put plainly: Herbicidal glasshouse test, post-emergence, ALOMY. The following applies: 250 g/Ha, evaluated after 13 days. As to the method:
as §1

In data set [4] the test system is Avena fatua (AVEFA). The data set can be described thus: Herbicidal glasshouse test, pre-emergence, AVEFA. The conditions noted are these: 250 g/Ha, evaluated after 13 days. On the procedure: as §1
For data set [5], the system named is Setaria faberi (SETFA). The data set can be described thus: Herbicidal glasshouse test, post-emergence, SETFA. The following applies: 250 g/Ha, evaluated after 13 days. As to the method: as §1
The test system of data set [6] is Alopecurus myosuroides (ALOMY). Put plainly: Herbicidal glasshouse test, pre-emergence, ALOMY. The following applies: 250 g/Ha, evaluated after 13 days. On the procedure:
as §1

The test system of data set [7] is Echinochloa crus-galli (ECHCG). The data set can be described thus: Herbicidal glasshouse test, pre-emergence, ECHCG. The following applies: 250 g/Ha, evaluated after 13 days. On the procedure:
as §1

The test system of data set [8] is Lolium perenne (LOLPE). Put plainly: Herbicidal glasshouse test, pre-emergence, LOLPE. The following applies: 250 g/Ha, evaluated after 13 days. On the procedure: as §1
Data set [9] has as its system wheat crop plants. Put plainly: Crop phytotoxicity comparison, post-emergence, wheat. The following applies: for damage to the wheat and barley crops compared to prior art compound C1: summary of Table B3. As to the method:
(§2) Seeds of a variety of test species are sown in standard soil in pots (Lolium perenne (LOLPE), Setaria faberi (SETFA), Alopecurus myosuroides (ALOMY), Echinochloa crus-galli (ECHCG), Avena fatua (AVEFA)). After cultivation for one day (pre-emergence) or after 8 days cultivation (post-emergence) under controlled conditions in a glasshouse (at 24/16° C., day/night; 14 hours light; 65% humidity), the plants are sprayed with an aqueous spray solution derived from the formulation of the technical active ingredient in acetone/water (50:50) solution containing 0.5% Tween 20 (polyoxyethelyene sorbitan monolaurate, CAS RN 9005-64-5). Compounds are applied at 250 g/h. The test plants are then grown in a glasshouse under controlled conditions in a glasshouse (at 24/16° C., day/night; 14 hours light; 65% humidity) and watered twice daily. After 13 days for pre and post-emergence, the test is evaluated for the percentage damage caused to the plant. The biological activities are shown in the following table on a five-point scale (5=80-100%; 4=60-79%; 3=40-59%; 2=20-39%; 1=0-19%). NT=not tested.
(§3) Using procedures outlines above, wheat and barley crop plants are treated, post-emergence with compounds A1 or A4 of the present invention or comparator compound C1 (Compound A-38 from WO2014/096289) at the application rates indicated. The compounds were also applied in conjunction with the safener compound cloquintocet-mexyl (CQC) at 50 g/ha.

Data set [10] deals with Setaria faberi (SETFA). The data set can be described thus: Herbicidal glasshouse test, pre-emergence, SETFA. The conditions noted are these: 250 g/Ha, evaluated after 13 days. As to the method:
as §1

Data set [11] relates to Echinochloa crus-galli (ECHCG). Put plainly: Herbicidal glasshouse test, post-emergence, ECHCG. The following applies: 250 g/Ha, evaluated after 13 days. On the procedure: as §1
Data set [12] relates to barley crop plants. The data set can be described thus: Crop phytotoxicity comparison, post-emergence, barley. On the procedure:
as §2, §3

The mark [13] stands for this setting: rate 60 g/ha + safener cloquintocet-mexyl (CQC) at 50 g/ha.

For the molecule `CC#Cc1cc(C)c(C2C(=O)CC3(CCN(C(=O)C(=O)C(F)(F)F)CC3)CC2=O)c(C)c1` [Compound A3], the “percentage damage caused to the plant, five-point scale, LOLPE” value (“percentage damage caused … LOLPE” for short) in [1] and in data set [8] was 5 (5=80-100%) in each case. For the same molecule, the “percentage damage caused to the plant, five-point scale, AVEFA” value (“percentage damage caused … AVEFA” below) is reported as 5 (5=80-100%) in data set [2] and 4 (4=60-79%) in [4]. Also, the “percentage damage caused to the plant, five-point scale, ALOMY” value (shortened to “percentage damage caused … ALOMY”) in data set [3] and in [6] was 5 (5=80-100%) each time. Further, the “percentage damage caused to the plant, five-point scale, SETFA” value (“percentage damage caused … SETFA” for short) in [5] and in data set [10] was 5 (5=80-100%) each time. Further, the “percentage damage caused to the plant, five-point scale, ECHCG” value (“percentage damage caused … ECHCG” below) in [7] and in data set [11] was 5 (5=80-100%) throughout. Further, the “damage to the wheat and barley crops compared to prior art compound C1” value in [9] is “significantly less damaging”.

Take `CC#Cc1cc(C)c(C2C(=O)CC3(CCN(C(=O)C(C)=O)CC3)CC2=O)c(C)c1` [Compound A1, 9-(2,6-dimethyl-4-prop-1-ynyl-phenyl)-3-(2-oxopropanoyl)-3-azaspiro[5.5]undecane-8,10-dione]: the “percentage damage caused … LOLPE” value in data set [1] and in data set [8] was 5 (5=80-100%) in each case. The “percentage damage caused … AVEFA” value in data set [2] and in data set [4] was 5 (5=80-100%) throughout. Further, the “percentage damage caused … ALOMY” value in data set [3] and in data set [6] was 5 (5=80-100%) in each case. In addition, the “percentage damage caused … SETFA” value in data set [5] and in data set [10] was 5 (5=80-100%) throughout. Also, the “percentage damage caused … ECHCG” value in data set [7] and in data set [11] was 5 (5=80-100%) throughout. Besides, the entries for the “% phytotoxicity observed, Wheat” value in [9] (rate 30 g/ha), in data set [9] (rate 60 g/ha) and in data set [9] (setting [13]) were 0%, 10% and 0%, respectively. The “damage to the wheat and barley crops compared to prior art compound C1” value in [9] is “significantly less damaging”. For the same molecule, the “% phytotoxicity observed, Barley” value in data set [12] (rate 30 g/ha) and in data set [12] (rate 60 g/ha) was 0% throughout.

As for `CC#Cc1cc(C)c(C2C(=O)CC3(CCN(C(=O)C(=O)Nc4ccccn4)CC3)CC2=O)c(C)c1` [Compound A6], the figures for the “percentage damage caused … LOLPE” value in data set [1] and in [8] were 5 (5=80-100%) and 4 (4=60-79%), respectively. Moreover, the “percentage damage caused … AVEFA” value in [2] is on record as 5 (5=80-100%); in [4], 4 (4=60-79%). For the same molecule, the “percentage damage caused … ALOMY” value is 5 (5=80-100%) in data set [3] and 2 (2=20-39%) in data set [6]. For the same molecule, the “percentage damage caused … SETFA” value in data set [5] and in data set [10] was 5 (5=80-100%) each time. The “percentage damage caused … ECHCG” value in data set [7] and in data set [11] was 5 (5=80-100%) in each case.

Take `CC#Cc1cc(C)c(C2C(=O)CC3(CCOCC3)CC2=O)c(C)c1` [Compound C1, reference compound]: the “% phytotoxicity observed, Wheat” value in [9] (rate 30 g/ha) came out at 40%; in [9] (rate 60 g/ha), 70%; in data set [9] (setting [13]), 60%. In addition, the “% phytotoxicity observed, Barley” value in [12] (rate 30 g/ha) amounted to 80%; in [12] (rate 60 g/ha) it was 90%.

In the case of `CC#Cc1cc(C)c(C2C(=O)CC3(CCN(C(=O)C(=O)OCC)CC3)CC2=O)c(C)c1` [Compound A2], the “percentage damage caused … LOLPE” value in data set [1] is listed as 5 (5=80-100%); in [8] it was 3 (3=40-59%). Also, the figures for the “percentage damage caused … AVEFA” value in data set [2] and in data set [4] were 4 (4=60-79%) and 1 (1=0-19%), respectively. In addition, the “percentage damage caused … ALOMY” value in data set [3] was 4 (4=60-79%); in [6], 0. Further, the “percentage damage caused … SETFA” value in [5] and in data set [10] was 5 (5=80-100%) throughout. Moreover, the “percentage damage caused … ECHCG” value in data set [7] is listed as 4 (4=60-79%); in [11], 5 (5=80-100%).

Consider `CC#Cc1cc(C)c(C2C(=O)CC3(CCN(C(=O)C(=O)C(C)(C)C)CC3)CC2=O)c(C)c1` [Compound A7], for which the “percentage damage caused … LOLPE” value in data set [1] and in [8] was 5 (5=80-100%) in each case. Besides, the figures for the “percentage damage caused … AVEFA” value in data set [2] and in data set [4] were 5 (5=80-100%) and 3 (3=40-59%), respectively. Besides, the “percentage damage caused … ALOMY” value is reported as 5 (5=80-100%) in data set [3] and 3 (3=40-59%) in data set [6]. Moreover, the “percentage damage caused … SETFA” value in [5] and in [10] was 5 (5=80-100%) in each case. The “percentage damage caused … ECHCG” value in [7] and in [11] was 5 (5=80-100%) each time.

Consider `CC#Cc1cc(C)c(C2C(=O)CC3(CCN(C(=O)C(=O)NC(C)(C)C)CC3)CC2=O)c(C)c1` [Compound A9, N-tert-butyl-2-[9-(2,6-dimethyl-4-prop-1-ynyl-phenyl)-8,10-dioxo-3-azaspiro[5.5]undecan-3-yl]-2-oxo-acetamide], for which the “percentage damage caused … LOLPE” value in data set [1] and in [8] was 5 (5=80-100%) each time. Moreover, the “percentage damage caused … AVEFA” value in data set [2] and in data set [4] was 5 (5=80-100%) in each case. For the same molecule, the “percentage damage caused … ALOMY” value is on record as 4 (4=60-79%) in data set [3] and 5 (5=80-100%) in data set [6]. The “percentage damage caused … SETFA” value in data set [5] and in [10] was 5 (5=80-100%) throughout. Besides, the “percentage damage caused … ECHCG” value in [7] and in data set [11] was 5 (5=80-100%) throughout.

(Values after patent US12250947B2, “Substituted azaspiro-cycles as herbicides” (SYNGENTA CROP PROTECTION AG, priority 2019, dated 2025).)
